Source: patent publication US10239844B2, “Disubstituted triazole analogs” (BioVentures, LLC, priority 2014, dated 2019)

What was measured:
Hs578T cells = assay: Hs578T cell viability, Calcein-AM fluorescence, 48 hours; format: cell-based; settings: Homo sapiens, Hs-578T
Procedure: Some of these compounds were also screened against breast cancer cell line Hs578T. Briefly, Hs578T cells were seeded at 3,000 cells per well into 96-well plates and incubated overnight at 37° C. in DMEM (Dulbecco's Modified Eagle's Medium) containing 10% FBS (Fetal Bovine Serum) medium. The following day, various concentrations of combretastin analogs, or vehicle, were added to each plate and the plates were then incubated for 48 hours. Then, cells were washed twice with Dulbecco's Phosphate-Buffered Saline (DPBS) pH 7.4 and incubated with 2 μM Calcein-AM for 30 minutes at 25° C. Fluorescence was measured using a 490 nm excitation filter and a 520 nm emission filter. The fluorescence intensity is proportional to the number of viable cells. The fluorescence intensity of control (untreated) cells was taken as 100% viability. The relative cell viability compared to control was calculated by using the following formula: Cell viability (%)=Fluorescence intensity of treated cells/Fluorescence intensity of untreated cells×100.
The GI50 values (growth inhibition; anti-proliferation) were calculated using GraphPad prism (San Diego, Calif.) by plotting the percent cell viability as a function of the compound concentration and fit to a four-parameter logistic model. The data represents mean±standard deviation of three independent experiments.

[1] = test system: GFP expressing leukemia cells; assay: In vivo anti-leukemic activity, GFP expressing leukemia cells injected into mice; settings: 3.5 mg/kg
Procedure: The anti-leukemic activity of Compound 8 (FIG. 1) was evaluated in vivo. GFP expressing leukemia cells were injected into mice. One week post injection, mice were treated with Compound 8 at 3.5 mg/kg or DMSO (control) (FIG. 11A). Mice were imaged one week later. […] Further, bone marrow was isolated and the percent of GFP expressing AML stem cells was quantitated.

COc1cc(-c2n[nH]nc2-c2cc3ccccc3s2)cc(OC)c1OC [PNR-7-74, 4-(benzo[b]thiophen-2-yl)-5-(3,4,5-trimethoxyphenyl)-2H-1,2,3-triazole]
melting point: 189 to 191 °C | GI50 (Hs578T cells): 10.3 nM

COc1cc(OC)cc(-c2n[nH]nc2-c2cc3ccccc3s2)c1 [PNR-7-83, 4-(benzo[b]thiophen-2-yl)-5-(3,5-dimethoxyphenyl)-2H-1,2,3-triazole]
GI50 (Hs578T cells): 66.5 nM

COc1cc(-c2n[nH]nc2-c2ccc3c(c2)OCO3)cc(OC)c1OC [Compound 8, 4-(benzo[d][1,3]dioxol-5-yl)-5-(3,4,5-trimethoxyphenyl)-2H-1,2,3-triazole]
tumor shrinkage, imaging of GFP expressing cells (FIG. 11C) ([1]; imaged one week after treatment, relative to DMSO and untreated mice): significant tumor shrinkage | percent of GFP expressing AML stem cells in bone marrow (FIG. 10) ([1]; isolated bone marrow): significant reduction in AML stem cells | average radiance (FIG. 11B) ([1]; versus DMSO control): significant reduction in leukemia cells

COc1cc(-c2n[nH]nc2-c2cc3ccccc3o2)cc(OC)c1OC [PNR-7-81, 4-(benzofuran-2-yl)-5-(3,4,5-trimethoxyphenyl)-2H-1,2,3-triazole]
melting point: 158 to 160 °C | GI50 (Hs578T cells): 20.3 nM
